Laboratory results: ChEMBL document CHEMBL1201862, “PubChem BioAssay data set” (2004)
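Grown in 96-well plates, cells were treated for 48 hours with each compound at five concentrations. Insufficient inhibition: endpoint recorded as highest concentration tested. GI50 marks 50% less growth.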 Activity calls are given as the source filed them. Rule as the data show it: active = GI50 up to about 1.1 µM and inactive = higher.

Legend:
Experiment in all cases: NCI anticancer screen, dose series, 48 h
SNB-75 = tested on: SNB-75
NCI-H522 = tested on: NCI-H522
MDA-N = tested on: MDA-N
A549 = tested on: A549
HCT-15 = tested on: HCT-15
HL-60 = tested on: HL-60
A498 = tested on: A498
MCF7 = tested on: MCF7
PC-3 = tested on: PC-3
SNB-19 = tested on: SNB-19
T47D = tested on: T47D
SF-295 = tested on: SF-295
OVCAR-4 = tested on: OVCAR-4
UACC-62 = tested on: UACC-62
LOX IMVI = tested on: LOX IMVI
HCT-116 = tested on: HCT-116
SN12C = tested on: SN12C
BT-549 = tested on: BT-549

Row | Structure (SMILES) | GI50 (SNB-75) | GI50 (NCI-H522) | GI50 (MDA-N) | GI50 (A549) | GI50 (HCT-15) | GI50 (HL-60) | GI50 (A498) | GI50 (MCF7) | GI50 (PC-3) | GI50 (SNB-19) | GI50 (T47D) | GI50 (SF-295) | GI50 (OVCAR-4) | GI50 (UACC-62) | GI50 (LOX IMVI) | GI50 (HCT-116) | GI50 (SN12C) | GI50 (BT-549)
1 | CN(C)/N=C1\C=C2CC[C@H](O[Si](C)(C)C(C)(C)C)[C@@]2(C)CC1 | 16.3 µM (inactive) | 10.4 µM (inactive) | 19.9 µM (inactive) | 19.5 µM (inactive) | 17.6 µM | 7.93 µM (inactive) | 17.8 µM (inactive) | 15.6 µM (inactive) | 14.1 µM (inactive) | 17.7 µM (inactive) | 12.2 µM (inactive) | 16.4 µM (inactive) | 14.9 µM (inactive) | 15.1 µM (inactive) | 18.3 µM (inactive) | – | – | –
2 | CN(C)CCn1c2c3ccccc3ccc2c2oc(=O)c3ccccc3c21 | 2.3 µM (inactive) | 9.46 µM (inactive) | – | 3.88 µM (inactive) | 8.34 µM | > 100 µM (inactive) | – | – | – | 10.3 µM (inactive) | – | 9.04 µM (inactive) | 6.44 µM (inactive) | 7.35 µM (inactive) | 4.23 µM (inactive) | 4.2 µM (inactive) | – | –
3 | Cc1nc2ccc(S(=O)(=O)Nc3ccccc3)cc2c(=O)n1NC(=O)CNc1ccccc1 | > 100 µM (inactive) | > 100 µM (inactive) | > 100 µM (inactive) | > 100 µM (inactive) | > 100 µM | > 100 µM (inactive) | – | > 100 µM (inactive) | > 100 µM (inactive) | > 100 µM (inactive) | – | > 100 µM (inactive) | > 100 µM (inactive) | > 100 µM (inactive) | > 100 µM (inactive) | > 100 µM (inactive) | > 100 µM (inactive) | > 100 µM (inactive)
4 | COc1cc2c(/C=C3/C(=O)Nc4ccccc43)c(Cl)n(Cc3ccc(Cl)cc3)c2cc1C | 0.237 µM (active) | 0.343 µM (active) | – | 0.366 µM (active) | 0.242 µM | 0.373 µM (active) | 0.733 µM (active) | 0.491 µM (active) | 0.608 µM (active) | 0.43 µM (active) | 0.52 µM (active) | 0.333 µM (active) | 0.632 µM (active) | 0.28 µM (active) | 0.344 µM (active) | 0.264 µM (active) | 0.226 µM (active) | 0.382 µM (active)
5 | C1=N\CCN2CCN(CC/N=C\c3ccccc3OCc3cccc(n3)COc3ccccc3/1)CC2 | 9.66 µM (inactive) | 24.2 µM (inactive) | 1.11 µM (active) | 44.6 µM (inactive) | 6.01 µM | 3.16 µM (inactive) | 40.9 µM (inactive) | 1.52 µM (inactive) | 9.46 µM (inactive) | 9.91 µM (inactive) | – | 3.62 µM (inactive) | 6.15 µM (inactive) | 1.73 µM (inactive) | – | 2.61 µM (inactive) | 10.6 µM (inactive) | 9.75 µM (inactive)
6 | COc1cc(/C=C/C(=O)C2(C(=O)/C=C/c3cc(OC)c(OC)c(OC)c3)CCCCC2)cc(OC)c1OC | 56.4 µM (inactive) | 30.1 µM (inactive) | – | > 100 µM (inactive) | 33.3 µM | 52 µM (inactive) | > 100 µM (inactive) | 27.6 µM (inactive) | 27.2 µM (inactive) | 36.6 µM (inactive) | 76.2 µM (inactive) | 34.8 µM (inactive) | 46.6 µM (inactive) | 26.2 µM (inactive) | 38.7 µM (inactive) | 31.1 µM (inactive) | 35.2 µM (inactive) | 29.6 µM (inactive)
7 | CC1(C)CC(=O)c2c(nc3c(ccc4ccccc43)c2-c2ccc(NC(=O)CCCC(=O)Nc3ccc(-c4c5c(nc6c4ccc4ccccc46)CC(C)(C)CC5=O)cc3)cc2)C1 | > 100 µM (inactive) | > 100 µM (inactive) | > 100 µM (inactive) | > 100 µM (inactive) | 46.5 µM | > 100 µM (inactive) | – | > 100 µM (inactive) | > 100 µM (inactive) | > 100 µM (inactive) | > 100 µM (inactive) | > 100 µM (inactive) | – | – | > 100 µM (inactive) | > 100 µM (inactive) | > 100 µM (inactive) | –
8 | Cc1ccc(S(=O)(=O)NNC(=S)Nc2cccc3ccccc23)cc1 | 27.9 µM (inactive) | 16.7 µM (inactive) | 55.3 µM (inactive) | 49.4 µM (inactive) | 67.5 µM | 28.3 µM (inactive) | 39.1 µM (inactive) | 31.6 µM (inactive) | 37.2 µM (inactive) | 68.1 µM (inactive) | 39.5 µM (inactive) | 34.7 µM (inactive) | 22.3 µM (inactive) | 32.1 µM (inactive) | – | 55.2 µM (inactive) | 33.7 µM (inactive) | –
9 | CC(C)(C)OC(=O)NC(Cc1ccc(OC(C)(C)C)cc1)C(=O)N[C@H]1CCC[C@H]1C(=O)NC(Cc1ccccc1)C(=O)N1CCCC1C(N)=O (stereo partly specified) | > 100 µM (inactive) | > 100 µM (inactive) | > 100 µM (inactive) | > 100 µM (inactive) | > 100 µM | – | > 100 µM (inactive) | > 100 µM (inactive) | > 100 µM (inactive) | > 100 µM (inactive) | > 100 µM (inactive) | > 100 µM (inactive) | > 100 µM (inactive) | > 100 µM (inactive) | > 100 µM (inactive) | > 100 µM (inactive) | > 100 µM (inactive) | –
10 | Cc1ccccc1/N=N/c1ccc(/N=N/c2c(O)ccc3cc(S(=O)(=O)O)cc(S(=O)(=O)O)c23)c(C)c1 | > 100 µM (inactive) | > 100 µM (inactive) | – | > 100 µM (inactive) | > 100 µM | > 100 µM (inactive) | – | > 100 µM (inactive) | > 100 µM (inactive) | > 100 µM (inactive) | – | > 100 µM (inactive) | > 100 µM (inactive) | > 100 µM (inactive) | – | > 100 µM (inactive) | – | > 100 µM (inactive)
11 | O=C1c2ccccc2-c2nnc3c(c21)-c1ccccc1C3 | 76 µM (inactive) | 48.6 µM (inactive) | > 100 µM (inactive) | 62.7 µM (inactive) | 39.4 µM | 60.5 µM (inactive) | – | 64.6 µM (inactive) | > 100 µM (inactive) | 39 µM (inactive) | > 100 µM (inactive) | > 100 µM (inactive) | – | 37.6 µM (inactive) | – | 64 µM (inactive) | > 100 µM (inactive) | –
12 | CC(=O)Oc1ccc(/C=C/C(=O)NCC(NC(=O)/C=C/c2ccc(OC(C)=O)c(OC(C)=O)c2)C(=O)O)cc1OC(C)=O (stereo unspecified) | – | 46.8 µM (inactive) | > 100 µM (inactive) | > 100 µM (inactive) | > 100 µM | – | > 100 µM (inactive) | > 100 µM (inactive) | > 100 µM (inactive) | > 100 µM (inactive) | – | > 100 µM (inactive) | > 100 µM (inactive) | > 100 µM (inactive) | 97.3 µM (inactive) | > 100 µM (inactive) | > 100 µM (inactive) | > 100 µM (inactive)
13 | N=C(N)NS(=O)(=O)c1ccc(NC(=O)c2c3ccccc3nc3ccccc23)cc1 | > 100 µM (inactive) | > 100 µM (inactive) | > 100 µM (inactive) | > 100 µM (inactive) | > 100 µM | – | > 100 µM (inactive) | > 100 µM (inactive) | > 100 µM (inactive) | 86.5 µM (inactive) | – | > 100 µM (inactive) | > 100 µM (inactive) | > 100 µM (inactive) | > 100 µM (inactive) | > 100 µM (inactive) | > 100 µM (inactive) | > 100 µM (inactive)
